Assay results from the NIST ThermoML archive (doi:10.1016/j.jct.2018.11.014).

Assay: molar heat capacity at constant pressure
Details: 101.33 kPa, Crystal, Vacuum adiabatic calorimetry

O=C(CO)[C@H](O)[C@H](O)[C@H](O)CO [D-psicose]
Details	molar heat capacity at constant pressure [J/K/mol]
10 K	1.06
13.99 K	3.375
14.02 K	3.439
14.28 K	3.64
14.4 K	3.754
14.66 K	3.847
14.86 K	4.085
15.13 K	4.198
15.37 K	4.483
15.64 K	4.671
15.88 K	4.798
16.15 K	5.026
16.39 K	5.238
16.66 K	5.478
16.87 K	5.647
17.18 K	5.894
17.36 K	6.237
17.71 K	6.348
17.89 K	6.508
18.23 K	6.844
18.41 K	6.995
18.75 K	7.275
18.93 K	7.521
19.28 K	7.752
19.46 K	7.915
19.8 K	8.239
19.98 K	8.416
20 K	8.42
20.3 K	8.666
20.5 K	8.908
20.83 K	9.202
21.03 K	9.391
21.37 K	9.657
21.57 K	9.861
21.92 K	10.24
22.13 K	10.42
22.49 K	10.72
22.7 K	10.96
23.05 K	11.3
23.26 K	11.48
23.62 K	11.82
23.81 K	12.26
24.15 K	12.34
24.36 K	12.54
24.65 K	12.88
24.9 K	13.06
25.16 K	13.34
25.45 K	13.61
25.69 K	13.83
26.02 K	14.15
26.24 K	14.43
26.59 K	14.76
26.81 K	14.99
27.15 K	15.34
27.39 K	15.49
27.7 K	15.88
27.98 K	16.13
28.26 K	16.42
28.56 K	16.7
28.82 K	16.95
29.15 K	17.31
29.37 K	17.41
29.75 K	17.78
29.95 K	18.06
30 K	18.07
30.36 K	18.41
30.55 K	18.62
31.01 K	19.02
31.16 K	19.16
31.66 K	19.69
31.8 K	19.88
32.32 K	20.31
32.46 K	20.43
32.98 K	20.91
33.13 K	21.09
33.66 K	21.61
33.8 K	21.78
34.35 K	22.21
34.48 K	22.3
35.05 K	22.92
35.17 K	22.97
35.76 K	23.59
35.88 K	23.74
36.48 K	24.27
36.63 K	24.38
37.21 K	24.86
37.36 K	25.09
37.96 K	25.64
38.08 K	25.78
38.67 K	26.21
38.81 K	26.52
39.35 K	26.89
39.58 K	27.16
40 K	27.53
40.05 K	27.63
40.43 K	27.95
40.77 K	28.11
41.28 K	28.77
41.49 K	28.95
42.02 K	29.4
42.23 K	29.59
42.78 K	30.13
42.98 K	30.25
43.57 K	30.79
43.74 K	30.97
44.37 K	31.59
44.52 K	31.66
45.16 K	32.25
45.3 K	32.35
45.96 K	33.05
46.09 K	33.04
46.74 K	33.72
46.88 K	33.8
47.53 K	34.42
47.68 K	34.54
48.33 K	35.15
48.49 K	35.21
49.13 K	35.86
49.31 K	35.98
49.94 K	36.62
50 K	36.64
50.14 K	36.77
50.75 K	37.33
51.57 K	38.05
52.37 K	38.74
53.17 K	39.44
53.96 K	40.14
54.75 K	40.85
55.53 K	41.56
56.33 K	42.23
57.14 K	42.92
57.94 K	43.52
58.76 K	44.3
59.58 K	45.03
60 K	45.42
60.41 K	45.79
61.24 K	46.57
62.08 K	47.21
62.92 K	47.95
63.78 K	48.66
64.64 K	49.47
65.5 K	50.22
66.42 K	50.91
67.38 K	51.71
68.32 K	52.51
69.24 K	53.27
70 K	53.92
70.15 K	54.04
71.1 K	54.88
72.09 K	55.67
73.08 K	56.51
74.09 K	57.32
75.11 K	58.14
76.17 K	59.03
77.3 K	59.96
78.43 K	60.89
79.19 K	61.65
79.55 K	61.8
80 K	62.17
80.16 K	62.27
80.67 K	62.64
81.12 K	63.07
81.85 K	63.65
82.06 K	63.87
82.72 K	64.37
83.04 K	64.72
83.07 K	64.59
83.74 K	65.19
84.05 K	65.44
84.3 K	65.6
84.74 K	66.03
85.05 K	66.26
85.58 K	66.72
85.73 K	66.8
86.07 K	67.06
86.71 K	67.55
86.87 K	67.6
87.09 K	67.95
87.73 K	68.44
88.15 K	68.72
88.2 K	68.72
88.8 K	69.22
89.24 K	69.63
89.57 K	69.81
89.88 K	70.11
90 K	70.2
90.32 K	70.45
90.92 K	70.89
90.95 K	70.98
91.39 K	71.33
92.01 K	71.78
92.24 K	71.95
92.44 K	72.09
93.1 K	72.72
93.53 K	73.06
93.55 K	72.93
94.22 K	73.58
94.64 K	73.83
94.9 K	74.01
95.33 K	74.47
95.76 K	74.71
96.28 K	75.12
96.44 K	75.31
96.92 K	75.66
97.56 K	76.24
97.64 K	76.12
98.12 K	76.55
98.71 K	77.11
98.99 K	77.22
99.36 K	77.58
99.92 K	78.04
100 K	78.04
100.32 K	78.22
100.64 K	78.58
101.13 K	78.97
101.68 K	79.27
101.91 K	79.49
102.33 K	79.86
103.08 K	80.34
103.16 K	80.4
103.51 K	80.73
104.4 K	81.45
104.47 K	81.42
104.73 K	81.75
105.67 K	82.37
105.83 K	82.47
105.97 K	82.66
106.98 K	83.32
107.19 K	83.5
107.21 K	83.56
108.27 K	84.28
108.43 K	84.6
108.57 K	84.51
109.54 K	85.27
109.64 K	85.41
109.99 K	85.61
110 K	85.65
110.81 K	86.25
110.88 K	86.33
111.39 K	86.67
112.1 K	87.19
112.15 K	87.32
112.78 K	87.7
113.41 K	88.29
113.43 K	88.23
114.16 K	88.71
114.66 K	89.15
114.74 K	89.18
115.57 K	89.78
115.89 K	90.08
116.04 K	90.2
117.01 K	90.83
117.16 K	91.03
117.33 K	91.11
118.44 K	91.9
118.47 K	92.11
118.65 K	92.13
119.8 K	92.98
119.86 K	92.95
120 K	93.09
120.39 K	93.31
121.11 K	93.95
121.28 K	94.01
121.69 K	94.22
122.42 K	94.92
122.77 K	95.15
